This is an account of results in patent US20240294508A1, “RIP1 MODULATORS INCLUDING AZETIDINE CYCLIC UREAS, PREPARATIONS, AND USES THEREOF” (SIRONAX LTD., priority 2021, published 2024).

For orientation: EC50 means the concentration that produces a half-maximal response.

Molecules are shown by their SMILES.

The experiment deals with HT-29 cells. Put plainly: HT29 cells 0FBS assay in vitro: TNF-α/SMAC mimetic/zVAD-FMK induced necroptosis, CellTiter-Glo cell viability (RIP1 inhibitory activity). It is filed as cell-based. As to conditions: Homo sapiens, FBS free medium, TNF-α (10 ng/ml) + SMAC mimetic (6 uM) + zVAD-FMK (10 μM), 20 hours, geometric mean EC50. The text has this:
Protocol for HT29 Cells 0FBS Assay In Vitro
• Cell line: HT-29 (ATCC® HTB-38™) • Culture medium: McCOY's 5A, Gibco, Cat No. 16600-082 • FBS, Gibco, Cat No. 10099-141C • Trypsin: Gibco, Cat No. 25200-056 • DMSO: Sigma, Cat No. 67-68-5, 1L • Assay plate: Corning #3903 • Compound dilution plate: Corning #3357 • Inducers: TNFα, GenScript, Cat No. Z01001-50, • SmacM, Cat. No., HY-15989, MedChemExpress (MCE) • Z_VAD FMK, TargetMol, T6013 • Cell Titer-Glo® Luminescent Cell Viability Assay Kit: Promega, Cat No. G7573 • EnVision: PerkinElmer, 2105-0010
2. Cell Seeding of HT-29 Cells
1) HT-29 cells were checked every day to make sure they are healthy and growing as expected. They were split sub-culturing when were approximately 80% confluent.
2) First pre-warm the culture medium of McCOY's 5A medium (Gibco, Cat No. 16600-082) with 10% FBS (Gibco, Cat No. 10099-141C) in 37° C. water bath for at least 30 min.
3) Growing cells to desired level of confluency 80% in a T75 flask, aspirate the medium, and wash with warm PBS two times.
4) Add 2-3 ml fresh warm trypsin (Gibco, Cat No. 25200-056) solution. Transfer the flask to a 37° C. incubator.
5) After 5 minutes, tap the side of the flask, and examine the flask under a microscope for lifting. If necessary, return the cells to the incubator for an additional 5-10 minutes, with occasional tapping, until lifting is complete.
6) Quickly neutralize the trypsin reaction by adding 6-9 ml cell culture medium, then transfer the cells to sterile 15 ml conical tubes. Pellet the cells by centrifugation at 300×g for 7 minutes, then decant the supernatant.
7) Resuspend the cells in fresh cell culture medium. Do cell counting with hemocytometer.
8) Seed 100 μl of 5,000 cells into each well of the sterile 96-well cell culture plate (Corning 3903) and culture overnight at 37° C. with 5% CO2.
3. Compounds Titration and Treatment of HT-29 Cells
1) All batches of compounds (CPDs0 (e.g., compound 1-169) were dissolved in DMSO (Dimethyl sulfoxide) as 20 mM stock solution.
2) Take 3 ul 20 mM stock solution of CPDs to […] DMSO and mix well, continue the titration ratio of 1:3 (20 ul CPDs+40 ul DMSO), e.g., to give solutions of CPDS at 6.6 mM, 2.2 mM, etc., till the 10 points end.
3) Take out assay plates with HT-29 cells from incubator, remove all culture medium then wash 1 time with 1×PBS, and change fresh McCOY's 5A medium of FBS free with a cocktail of TNF-α (10 ng/ml), the SMAC mimetic (6 uM) and zVAD-FMK (10 μM) to stimulate the HT-29 cells to increase pRIPK1 levels and necroptosis.
4) Add 0.5 μL of the diluted compound to the corresponding 96-well assay plates.
5) Incubate the assay plates for 20 hours at 37° C. with 5% CO2.
4. Performing Cell Viability Detection of HT-29 Cells after Treated with Compounds
1) The CellTiter-Glo® Luminescent Cell Viability Assay was employed to detect the ATP levels of viable HT-29 cells.
2) Equilibrate the CellTiter-Glo® buffer and the lyophilized substrate to room temperature prior to use.
3) Resuspend the CellTiter-Glo® substrate with CellTiter-Glo® buffer, mix by gently vortexing to obtain a homogeneous solution.
4) Pipette 20 μl the enzyme/substrate mixture by multi-channel pipette into the 96-well assay plates from step 5) under the Compounds titration and treatment stage.
5) Place the plates on an orbital shaker and mix the contents for 3 minutes to induce cell lysis.
6) Then allow the plates to incubate at room temperature for 10 minutes to stabilize luminescent signal.
7) Read and record luminescence signal with EnVision.
8) The geometric mean EC50 of the compounds were calculated from 10 points response dose with duplicate. In Table 2, activity is provided as follows: +++=0.1 nM≤EC50<100 nM; ++=100 nM≤EC5 1000 nM; […].
Background: ATP-based viability assays read luminescence as a measure of living cells.
Consider `COCCn1nc(C)c(-c2cc(OC3CN(C(=O)N4N=CC[C@H]4c4cc(F)cc(C#N)c4)C3)c(F)cn2)c1C` [Compound 20, (S)-3-fluoro-5-(1-(3-((5-fluoro-2-(1-(2-methoxyethyl)-3,5-dimethyl-1H-pyrazol-4-yl)pyridin-4-yl)oxy)azetidine-1-carbonyl)-4,5-dihydro-1H-pyrazol-5-yl)benzonitrile], for which the EC50 fell in the range of 0.1 to 100 nM. The figure for `Cc1nn(CC(N)=O)c(C)c1-c1cc(OC2CN(C(=O)N3N=CC[C@H]3c3cc(F)cc(C#N)c3)C2)c(F)cn1` [Compound 21, (S)-2-(4-(4-((1-(5-(3-cyano-5-fluorophenyl)-4,5-dihydro-1H-pyrazole-1-carbonyl)azetidin-3-yl)oxy)-5-fluoropyridin-2-yl)-3,5-dimethyl-1H-pyrazol-1-yl)acetamide] is 0.1 to 100 nM; for `Cc1ncn(C)c1-c1cc(OC2CN(C(=O)N3N=CC[C@H]3c3cc(F)cc(C#N)c3)C2)c(F)cn1` [Compound 22, (S)-3-(1-(3-((2-(1,4-dimethyl-1H-imidazol-5-yl)-5-fluoropyridin-4-yl)oxy)azetidine-1-carbonyl)-4,5-dihydro-1H-pyrazol-5-yl)-5-fluorobenzonitrile] it is 0.1 to 100 nM. The figure for `Cc1cn(C)c(-c2cc(OC3CN(C(=O)N4N=CC[C@H]4c4cc(F)cc(C#N)c4)C3)c(F)cn2)n1` [Compound 23, (S)-3-(1-(3-((2-(1,4-dimethyl-1H-imidazol-2-yl)-5-fluoropyridin-4-yl)oxy)azetidine-1-carbonyl)-4,5-dihydro-1H-pyrazol-5-yl)-5-fluorobenzonitrile] is 0.1 to 100 nM; for `Cc1cnn(C)c1-c1ncc(F)c(OC2CN(C(=O)N3N=CC[C@H]3c3cncc(F)c3)C2)n1` [Compound 24, (S)-(3-((2-(1,4-dimethyl-1H-pyrazol-5-yl)-5-fluoropyrimidin-4-yl)oxy)azetidin-1-yl)(5-(5-fluoropyridin-3-yl)-4,5-dihydro-1H-pyrazol-1-yl)methanone] it is 0.1 to 100 nM; for `Cc1cnn(C)c1-c1ncc(F)c(OC2CN(C(=O)N3N=CC[C@H]3c3cc(F)cc(C#N)c3)C2)n1` [Compound 25, (S)-3-(1-(3-((2-(1,4-dimethyl-1H-pyrazol-5-yl)-5-fluoropyrimidin-4-yl)oxy)azetidine-1-carbonyl)-4,5-dihydro-1H-pyrazol-5-yl)-5-fluorobenzonitrile] it is 0.1 to 100 nM. The figure for `Cn1ncc(C#N)c1-c1cc(OC2CN(C(=O)N3N=CC[C@H]3c3cncc(F)c3)C2)c(F)cn1` [Compound 26, (S)-5-(5-fluoro-4-((1-(5-(5-fluoropyridin-3-yl)-4,5-dihydro-1H-pyrazole-1-carbonyl)azetidin-3-yl)oxy)pyridin-2-yl)-1-methyl-1H-pyrazole-4-carbonitrile] is 0.1 to 100 nM; for `Cn1nccc1-c1cc(OC2CN(C(=O)N3N=CC[C@H]3c3cncc(F)c3)C2)c(F)cn1` [Compound 27, (S)-(3-((5-fluoro-2-(1-methyl-1H-pyrazol-5-yl)pyridin-4-yl)oxy)azetidin-1-yl)(5-(5-fluoropyridin-3-yl)-4,5-dihydro-1H-pyrazol-1-yl)methanone] it is 0.1 to 100 nM. For the compound `CCn1nccc1-c1cc(OC2CN(C(=O)N3N=CC[C@H]3c3cncc(F)c3)C2)c(F)cn1` [Compound 28, (S)-(3-((2-(1-ethyl-1H-pyrazol-5-yl)-5-fluoropyridin-4-yl)oxy)azetidin-1-yl)(5-(5-fluoropyridin-3-yl)-4,5-dihydro-1H-pyrazol-1-yl)methanone], the concentration for a half-maximal effect (EC50) is 0.1 to 100 nM. The figure for `Cc1cc(-c2cc(OC3CN(C(=O)N4N=CC[C@H]4c4cncc(F)c4)C3)c(F)cn2)n(C)n1` [Compound 29, (S)-(3-((2-(1,3-dimethyl-1H-pyrazol-5-yl)-5-fluoropyridin-4-yl)oxy)azetidin-1-yl)(5-(5-fluoropyridin-3-yl)-4,5-dihydro-1H-pyrazol-1-yl)methanone] is 0.1 to 100 nM.

`Cc1cnn(C)c1-c1cc(OC2CN(C(=O)N3N=CC[C@H]3c3cncc(F)c3)C2)c(F)cn1` [Compound 30, (S)-(3-((2-(1,4-dimethyl-1H-pyrazol-5-yl)-5-fluoropyridin-4-yl)oxy)azetidin-1-yl)(5-(5-fluoropyridin-3-yl)-4,5-dihydro-1H-pyrazol-1-yl)methanone]: the EC50 is 0.1 to 100 nM. Turning to `Cc1nsc(C)c1-c1cc(OC2CN(C(=O)N3N=CC[C@H]3c3cc(F)cc(C#N)c3)C2)c(F)cn1` [Compound 31, (S)-3-(1-(3-((2-(3,5-dimethylisothiazol-4-yl)-5-fluoropyridin-4-yl)oxy)azetidine-1-carbonyl)-4,5-dihydro-1H-pyrazol-5-yl)-5-fluorobenzonitrile], the 50% effective concentration (EC50) fell in the range of 0.1 to 100 nM. The figure for `Cn1ncc(Cl)c1-c1ncc(F)c(OC2CN(C(=O)N3N=CC[C@H]3c3cncc(F)c3)C2)n1` [Compound 32, (S)-(3-((2-(4-chloro-1-methyl-1H-pyrazol-5-yl)-5-fluoropyrimidin-4-yl)oxy)azetidin-1-yl)(5-(5-fluoropyridin-3-yl)-4,5-dihydro-1H-pyrazol-1-yl)methanone] is 0.1 to 100 nM.

Consider `Cc1cnn(C)c1-c1ncc(F)c(OC2CN(C(=O)N3N=CC[C@H]3c3cncc(C#N)c3)C2)n1` [Compound 33, (S)-5-(1-(3-((2-(1,4-dimethyl-1H-pyrazol-5-yl)-5-fluoropyrimidin-4-yl)oxy)azetidine-1-carbonyl)-4,5-dihydro-1H-pyrazol-5-yl)nicotinonitrile], for which the EC50 is 0.1 to 100 nM. Take `Cn1ncc(C#N)c1-c1ccc(F)c(OC2CN(C(=O)N3N=CC[C@H]3c3cncc(F)c3)C2)n1` [Compound 34, (S)-5-(5-fluoro-6-((1-(5-(5-fluoropyridin-3-yl)-4,5-dihydro-1H-pyrazole-1-carbonyl)azetidin-3-yl)oxy)pyridin-2-yl)-1-methyl-1H-pyrazole-4-carbonitrile]: the EC50 lay within 0.1 to 100 nM.

Turning to `Cn1nc(N)cc1-c1cc(OC2CN(C(=O)N3N=CC[C@H]3c3cc(F)cc(C#N)c3)C2)c(F)cn1` [Compound 35, (S)-3-(1-(3-((2-(3-amino-1-methyl-1H-pyrazol-5-yl)-5-fluoropyridin-4-yl)oxy)azetidine-1-carbonyl)-4,5-dihydro-1H-pyrazol-5-yl)-5-fluorobenzonitrile], the concentration for a half-maximal effect (EC50) lay in the range of 0.1 to 100 nM. The figure for `Cn1ccnc1-c1cc(OC2CN(C(=O)N3N=CC[C@H]3c3cc(F)cc(C#N)c3)C2)c(F)cn1` [Compound 36, (S)-3-fluoro-5-(1-(3-((5-fluoro-2-(1-methyl-1H-imidazol-2-yl)pyridin-4-yl)oxy)azetidine-1-carbonyl)-4,5-dihydro-1H-pyrazol-5-yl)benzonitrile] is 0.1 to 100 nM; for `Cn1ccnc1-c1cc(OC2CN(C(=O)N3N=CC[C@H]3c3cncc(F)c3)C2)c(F)cn1` [Compound 37, (S)-(3-((5-fluoro-2-(1-methyl-1H-imidazol-2-yl)pyridin-4-yl)oxy)azetidin-1-yl)(5-(5-fluoropyridin-3-yl)-4,5-dihydro-1H-pyrazol-1-yl)methanone] it is 0.1 to 100 nM; for `Cn1ccnc1-c1cc(OC2CN(C(=O)N3N=CC[C@H]3c3cncc(C#N)c3)C2)c(F)cn1` [Compound 38, (S)-5-(1-(3-((5-fluoro-2-(1-methyl-1H-imidazol-2-yl)pyridin-4-yl)oxy)azetidine-1-carbonyl)-4,5-dihydro-1H-pyrazol-5-yl)nicotinonitrile] it is 100 to 1000 nM.
